Data set [1] in a line: molar heat capacity at constant pressure. Particulars: 101.33 kPa, Small sample (50 mg) DSC.
A short description of data set [2]: Molar enthalpy of transition or fusion. The conditions noted are these: Crystal; DSC.
For data set [3] the following is noted: Crystal; DTA.

Structures are written as SMILES. Numbers after ± are expanded uncertainties.

In the case of `CCCCCCCCCCCCCCCCCC(=O)O` [octadecanoic acid], the “molar heat capacity at constant pressure” value was 517.75 ± 23 J/K/mol in data set [1] (298.15 K, Crystal) and 648.61 ± 28 J/K/mol in data set [1] (338.15 K, Liquid). Further, the “Molar enthalpy of transition or fusion” value in data set [2] is 12.4 ± 0.359 kcal/mol.

For the compound `CCCCCCCCCCCCOS(=O)(=O)[O-].[Na+]` [sodium dodecyl sulfate], the “molar heat capacity at constant pressure” value in data set [1] (298.15 K, Crystal) was found to be 444.11 ± 20 J/K/mol; in data set [1] (338.15 K, Crystal) it was 553.69 ± 23 J/K/mol.

In the case of `CCCCCCCCCCCCCC(=O)O` [tetradecanoic acid], the Normal melting temperature in data set [3] stood at 53.00 ± 5 °C. Further, the “molar heat capacity at constant pressure” value is 385.95 ± 16 J/K/mol in data set [1] (298.15 K, Crystal) and 509.27 ± 21 J/K/mol in data set [1] (338.15 K, Liquid). For the same compound, the “Molar enthalpy of transition or fusion” value in data set [2] stood at 10.5 ± 0.263 kcal/mol.

These data come from the NIST ThermoML archive (doi:10.1016/j.tca.2014.12.020).
